Data reported in publication PMC12930396, “Positive modulators of N-methyl-D-aspartate receptor: structure–activity relationship study on steroidal C-17 and C-20 oxime ethers” (RSC Advances, 2026).
≈ marks a conversion by molar mass, not a printed value. Structures can show the parent of a compound that is named as a salt. Where two headings read alike, the source gives them in different places.

Tests used:
Stability in rat plasma = format: in vitro ADME
Procedure: Compounds were prepared as 1.6 mg mL^−1 stock solutions in methanol. Then, 20 µL of stock solution was added to 1000 µL of rat plasma (BioIVT, Cat. No. RAT00PLLH-0102307), maintained at 37 °C. Aliquots (50 µL) withdrawn at 0, 8, and 24 h were analyzed by HPLC. An aliquot of plasma was extracted with methanol (450 µL) containing an internal standard, and the solution was vortexed (20 s) and centrifuged at 13 500 rpm for 10 min. The supernatant was transferred to an autosampler vial, and 10 µL was injected into an LC-MS system. The samples were analyzed using an Agilent 6230 TOF LC/MS. Samples were separated on a Waters ACQUITY UPLC CSH Phenyl-Hexyl column (100 × 2.1, 130 Å, 1.7 µm) at a flow rate of 0.3 mL min^−1. […]. The temperature, the flow rate of the nitrogen drying gas, the pressure of the nitrogen nebulizing gas, and the flow rate of the sheath gas were set at 325 °C, 10 L min^−1, 40 psi, […], and 11 L min^−1, respectively. Results are represented as a percentage of the compound remaining in spiked plasma.

[1] = Thermodynamic solubility in PBS pH 7.4; format: physicochemical; conditions: 20 °C, pH 7.4, aqueous buffer, thermodynamic from solid
Procedure: The reference samples were prepared as follows: a weight corresponding to 2.5 µmol was dissolved in 250 µL of DMSO, resulting in a concentration of 10 mM stock solution. Each calibration level standard was prepared by diluting the stock solution in a mixture of PBS and acetonitrile (50 : 50 v/v). The samples for testing were prepared as follows: the volume of 1000 µL of PBS was added to the testing tube containing a weight of sample corresponding to 0.4 mM. The mixture was shaken at 1000 rpm at 20 °C for 24 h. The mixture was then filtered using a syringe polypropylene 0.45 µm filter. Samples and calibration standards are prepared using an automated system of a robotic arm (PAL-RTC, Switzerland). Then, the sample was analysed on chromatographic system (Vanquish UHPLC, Thermo Fisher Scientific, Germany) connected to the diode array detector and consequently to the charged aerosol detector (both Vanquish, Thermo Fisher Scientific, Germany), Thermo Scientific Accucore C8 (100 × 3 mm; 2.6 µm) column, using gradient elution with acetonitrile/methanol/5 mM formate buffer (pH = 3.00); flow: 1.0 cm^3 min^−1; column temperature: 40 °C; CAD temperature: 30 °C; sample volume: 5 mm^3.

in vitro [2] = conditions: for PAMPA permeability Retention (mass retention): 5 h, 100 µM; for PAMPA permeability Retention (mass retention) / Papp at 5 h, 100 µM: pH 7.4; for Papp at 5 h, 100 µM: PAMPA
Procedure: Permeability was quantified using permeability coefficients (Pe) and mass retention, the latter representing the proportion of compound retained in the membrane.
Permeation experiments were conducted in polystyrene 96-well filter plates with PVDF membrane pre-coated with structured layers of phospholipids (Corning Gentest™) according to the manufacturer's instructions. Briefly, the plate was warmed to room temperature, and meanwhile, the solutions of the compounds were diluted from 10 mM DMSO stocks to TRIS–HCl buffer pH 7.4 to reach a 100 µM final concentration. The DMSO concentration in the samples was 1%. Then, 300 µL of these solutions were transferred into the donor (receiver) plate wells, and 200 µL of the (TRIS) buffer was added to the acceptor (filter) plate wells. The filter plate and receiver plate were assembled and incubated for 5 h on an orbital shaker (300 rpm). After this, the concentration of the tested substances in both the donor and acceptor compartments was determined with use of LC/MS. Liquid chromatography was performed using an ExionLC AD pump and autosampler from Sciex (Framingham, MA, USA). […] The mobile phase flow rate was 300 µL min^−1. The column Synergi Fusion-RP from Phenomenex (Torrance, CA, USA) was used and was kept at 40 °C during the analysis.

in vitro [3] = conditions: for half-life at 10 µM: rat, microsomes
Procedure: The reactions were terminated by the addition of four volumes of ice-cold methanol, mixed vigorously, and left at −20 °C for 1h. After that, the samples were centrifuged and the supernatants were analysed by means of ECHO-MS® System (Sciex, Framingham, MA, USA). Zero time points were prepared by adding ice-cold methanol to the mixture of the compound with cofactors before the addition of microsomes. […] Intrinsic clearance (CLint) was calculated using the following formula: [drawing 4] where V is the incubation volume per milligram of microsomal protein (µL mg^−1) and t1/2 is the microsomal half-life.

GluN1/GluN2B receptors = molecular target: T1, GluN1/GluN2B receptors (Rattus norvegicus, UniProt P35439+Q00960); test: Patch-clamp: modulation of glutamate-induced currents of recombinant GluN1/GluN2B receptors expressed in HEK293 cells; format: cell-based; conditions: mean ± SEM; for h ± SEM (apparent Hill coefficient): concentration-response fit; for EC50: half-maximal potentiation of currents evoked by 1 µM glutamate; for EC50 / Emax: HEK293; for Emax: maximal potentiation of currents evoked by 1 µM glutamate and 30 µM glycine
T1 construct: expressed in transfected cells; host or cells: HEK293 cells (ATCC No. CRL-1573)
Procedure: To investigate the effect of compounds 11–23 on the activity of NMDARs, electrophysiological measurements were performed on HEK293 cells that were co-transfected with cDNAs containing genes encoding for the rat GluN1-1a and GluN2B subunits. The degree of modulation (E; potentiation/inhibition) for the newly synthesized compounds was determined using the following formula: [drawing 1] where Ie is the value of the current amplitude during glutamate and compound coapplication, and Ia is the current amplitude value for glutamate application. […] The results are presented as mean ± standard error of the mean (SEM), with n equal to the number of independent measurements. One-way analysis of variance (ANOVA) was used for multiple comparisons (unless otherwise stated, a value of P ≤ 0.05 was used for the determination of significance).
We have evaluated the relationship between oxime derivatives 11–23 and their modulatory effect on recombinant GluN1/GluN2B receptors. Due to the […] effect of neurosteroid-based PAMs at NMDARs[20,44]
HEK293 cells (American Type Culture Collection, ATCC No. CRL-1573, Rockville, MD, USA) were cultured in Opti-MEM I (Invitrogen, Carlsbad, CA, USA) supplemented with 5% fetal bovine serum (FBS; PAN Biotech, Aidenbach, Germany) at 37 °C in 5% CO2. 24 h before transfection, HEK293 cells were plated in 24-well plates at a density of 2 × 10^5 cells per well. The next day, the cells were transfected with cDNA encoding rat GluN1-1a (GluN1; GenBank accession number U08261)[56] and GluN2B (GenBank accession number M91562)[57] subunits (in the pCI-neo expression vector), along with green fluorescent protein (GFP; in the pQBI 25 vector, Takara, Tokyo, Japan). Briefly, equal amounts (200 ng) of cDNAs encoding GluN1-1a, GluN2B, and GFP were mixed with 0.6 µl of Matra-A reagent (IBA, Gottingen, Germany) in 50 µL of Opti-MEM I and added to confluent HEK293 cells cultured in 24-well plates. After trypsinization, the cells were resuspended in Opti-MEM I containing 1% FBS, supplemented with 20 mM MgCl2, 1 mM D,L-2-amino-5-phosphonovaleric acid, 3 mM kynurenic acid, and 1 µM ketamine, and plated on 30 mm glass coverslips coated with collagen and poly-L-lysine. Transfected cells were identified by GFP epifluorescence. Electrophysiology experiments were performed 24–48 h after transfection.
Whole-cell current recordings, voltage-clamped at a holding potential of −60 mV, were performed at room temperature using a patch-clamp amplifier (Axopatch 200B; Molecular Devices, Sunnyvale, CA, USA) after capacitance and series resistance (<10 MΩ) compensation (80–90%). NMDAR current responses were low-pass filtered at 2 kHz, digitally sampled at 5 kHz, and analysed using pClamp software (version 10.6; Molecular Devices). Patch pipettes (3–5 MΩ), pulled from borosilicate glass, were filled with an intracellular solution (ICS) containing (in mM): 15 CsCl, 10 BAPTA, 3 MgCl2, 1 CaCl2, 120 gluconic acid, 10 HEPES, and 2 ATP-Mg salt (pH adjusted to 7.2 with CsOH). The extracellular solution (ECS) contained (in mM): 160 NaCl, 2.5 KCl, 0.2 EDTA, 10 glucose, 10 HEPES, and 0.7 CaCl2 (pH adjusted to 7.3 with NaOH). NMDAR responses were induced by 1 µM glutamate and 30 µM glycine. 1% DMSO was present in all control and testing solutions. Solution applications were performed using a microprocessor-controlled multibarrel fast-perfusion system with a solution exchange rate around the cells of ∼10 ms.[58]

NMDA receptors = conditions: cited from earlier work; for Activity at NMDARs: C-17 ketone steroids
[4] = Solubility PBS, pH 7.4 (thermodynamic)
[5] = PBS, PBS pH 7.4, 20 °C, 24 h, read-out: Solubility PBS, pH 7.4 (thermodynamic)

T1 sequence (Q00960 27-1482, other chains not shown): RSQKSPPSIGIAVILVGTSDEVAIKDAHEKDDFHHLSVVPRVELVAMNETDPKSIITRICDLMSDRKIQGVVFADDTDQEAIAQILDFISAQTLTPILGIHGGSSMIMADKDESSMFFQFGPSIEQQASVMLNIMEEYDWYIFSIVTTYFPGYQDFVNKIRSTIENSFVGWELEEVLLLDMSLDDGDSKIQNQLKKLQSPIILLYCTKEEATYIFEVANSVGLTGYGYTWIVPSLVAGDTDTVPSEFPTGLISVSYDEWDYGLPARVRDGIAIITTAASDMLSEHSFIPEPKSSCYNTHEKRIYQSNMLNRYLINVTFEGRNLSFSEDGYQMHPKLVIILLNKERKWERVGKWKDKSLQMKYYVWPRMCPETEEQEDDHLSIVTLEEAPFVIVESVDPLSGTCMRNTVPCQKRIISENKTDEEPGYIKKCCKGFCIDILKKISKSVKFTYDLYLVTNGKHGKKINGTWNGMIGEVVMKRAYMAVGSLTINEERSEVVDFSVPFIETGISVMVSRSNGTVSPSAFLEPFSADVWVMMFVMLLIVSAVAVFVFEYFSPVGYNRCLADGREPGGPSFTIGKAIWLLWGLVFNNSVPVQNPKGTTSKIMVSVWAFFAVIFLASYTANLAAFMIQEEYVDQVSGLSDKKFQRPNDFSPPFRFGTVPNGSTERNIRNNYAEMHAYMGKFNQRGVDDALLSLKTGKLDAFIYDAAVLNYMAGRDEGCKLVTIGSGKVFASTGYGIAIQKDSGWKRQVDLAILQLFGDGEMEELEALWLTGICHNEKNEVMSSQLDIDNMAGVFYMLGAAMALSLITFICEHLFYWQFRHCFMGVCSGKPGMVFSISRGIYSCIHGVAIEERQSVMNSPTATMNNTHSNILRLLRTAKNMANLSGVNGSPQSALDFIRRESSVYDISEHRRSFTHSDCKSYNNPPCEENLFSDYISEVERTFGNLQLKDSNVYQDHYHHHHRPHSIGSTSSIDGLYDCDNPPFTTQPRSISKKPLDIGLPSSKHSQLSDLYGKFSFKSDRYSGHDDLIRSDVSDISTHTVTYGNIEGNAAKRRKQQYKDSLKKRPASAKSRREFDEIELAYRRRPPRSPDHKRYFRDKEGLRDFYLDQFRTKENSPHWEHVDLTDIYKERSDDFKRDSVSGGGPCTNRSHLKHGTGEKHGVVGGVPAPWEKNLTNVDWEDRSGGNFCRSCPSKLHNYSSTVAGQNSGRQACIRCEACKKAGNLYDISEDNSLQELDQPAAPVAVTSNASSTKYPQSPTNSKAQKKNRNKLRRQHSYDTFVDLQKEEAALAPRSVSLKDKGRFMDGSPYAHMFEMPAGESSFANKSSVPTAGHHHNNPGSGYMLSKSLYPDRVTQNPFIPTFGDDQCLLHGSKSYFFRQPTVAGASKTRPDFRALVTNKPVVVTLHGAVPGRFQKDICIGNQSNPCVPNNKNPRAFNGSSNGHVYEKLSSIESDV

Compound | Stability in rat plasma (% remaining) 8 h (Stability in rat plasma; rat, plasma) [% remaining] | Stability in rat plasma (% remaining) 24 h (Stability in rat plasma; rat, plasma) [% remaining] | solubility thermodynamic at 24 h [1, 4] [µM] | PAMPA permeability Retention (mass retention) (in vitro [2]) [%] | half-life at 10 µM (in vitro [3]; pH 7.4) [min] | h ± SEM (apparent Hill coefficient) (GluN1/GluN2B receptors) | EC50 (GluN1/GluN2B receptors) [µM] | Emax (GluN1/GluN2B receptors) [%] | other results
CC(=O)[C@H]1CC[C@H]2[C@@H]3CC=C4C[C@@H](OC(=O)CCCCC(=O)O)CC[C@]4(C)[C@H]3CC[C@]12C [20-Oxo-PE-hAdi, 20-Oxo-pregn-5-en-3β-yl hemiadipate, reference compound] | 11 ± 0 | 2 ± 0 | 20 ± 2 (≈ 8.89 µg/mL) | – | – | – | – | – | –
CC(=O)[C@H]1CC[C@H]2[C@@H]3CC=C4C[C@@H](OC(=O)CCC(=O)O)CC[C@]4(C)[C@H]3CC[C@]12C [20-Oxo-PE-hSuc, 20-Oxo-pregn-5-en-3β-yl hemisuccinate, reference compound] | – | – | – | – | – | – | – | – | Stability in rat plasma (% remaining) 8 h (Stability in rat plasma; rat plasma, 37 °C): 69 ± 1 % remaining; Stability in rat plasma (% remaining) 24 h (Stability in rat plasma; rat plasma, 37 °C): 50 ± 2 % remaining; solubility thermodynamic at 24 h [1, 5]: 277 ± 1 µM
CC(=O)[C@H]1CC[C@H]2[C@@H]3CC=C4C[C@@H](OC(=O)CCCC(=O)O)CC[C@]4(C)[C@H]3CC[C@]12C [20-Oxo-PE-hGlu, 20-Oxo-pregn-5-en-3β-yl hemiglutarate, reference compound] | – | – | – | – | – | – | – | – | Stability in rat plasma (% remaining) 8 h (Stability in rat plasma; rat plasma, 37 °C): 44 ± 3 % remaining; Stability in rat plasma (% remaining) 24 h (Stability in rat plasma; rat plasma, 37 °C): 21 ± 1 % remaining; solubility thermodynamic at 24 h [1, 5]: 86 ± 1 µM (≈ 37 µg/mL)
CCO/N=C(\C)[C@H]1CCC2C3CC=C4C[C@@H](OC(=O)CCC(=O)O)CC[C@]4(C)C3CC[C@@]21C (stereo partly drawn) [Compound 22, 20-Oxo-pregn-5-en-3β-yl hemisuccinate O-ethyloxime] | – | – | 22 ± 1 | 96 | 52.6 ± 3.7 | 1.3 ± 0.1 | 7 ± 1.1 | 340 ± 22 | Papp at 5 h, 100 µM (in vitro [2]): 1.58 ×10⁻⁶ cm/s; Stability in rat microsomes Clint (in vitro [3]): 26.3 µlmin^−1mg
C[C@]12CC[C@H](OS(=O)(=O)O)CC1=CCC1C2CC[C@]2(C)C(=O)CCC12 (some centres unmarked) [dehydroepiandrosterone sulfate] | – | – | – | – | – | – | – | – | Activity at NMDARs (NMDA receptors): inactive
C[C@]12CC[C@H](O)CC1=CC[C@@H]1[C@@H]2CC[C@]2(C)C(=O)CC[C@@H]12 [dehydroepiandrosterone, 3β-hydroxy-androst-5-en-17-one] | – | – | – | – | – | – | – | – | Activity at NMDARs (NMDA receptors): inactive
CCO/N=C(\C)[C@H]1CCC2C3CC=C4C[C@@H](OC(=O)CCCCC(=O)O)CC[C@]4(C)C3CC[C@@]21C (stereo partly drawn) [Compound 23, 20-Oxo-pregn-5-en-3β-yl hemiadipate O-ethyloxime] | – | – | 21 ± 1 (≈ 10.2 µg/mL) | 100 | > 60 | 1.7 ± 0.1 | 7.5 ± 1.1 | 451 ± 79 | Metabolic stability in rat liver microsomes (in vitro [3]; 1 h, 10 µM, pH 7.4): no detectable metabolism after 60 min
C/C(=N\O)[C@H]1CCC2C3CC=C4C[C@@H](OC(=O)CCCC(=O)O)CC[C@]4(C)C3CC[C@@]21C (stereo partly drawn) [Compound 11, 20-Oxo-pregn-5-en-3β-yl 3-hemiglutarate 20-oxime] | 69.9 ± 6.0 | 58.1 ± 8.1 | – | 87 | 58.6 ± 18.7 | 1.5 ± 0.1 | 7.9 ± 2.1 | 270 ± 35 | PAMPA permeability (in vitro [2]): comparable to or greater than that of verapamil; Papp at 5 h, 100 µM (in vitro [2]): 155 ×10⁻⁶ cm/s; Stability in rat microsomes Clint (in vitro [3]): 23.6 µlmin^−1mg
CCO/N=C1\CCC2C3CC=C4C[C@@H](OC(=O)CCCC(=O)O)CC[C@]4(C)C3CC[C@]12C (stereo partly drawn) [Compound 15, 17-Oxo-androst-5-en-3β-yl hemiglutarate O-ethyloxime] | 82.1 ± 7.5 | 69.9 ± 5.0 | – | 80 | > 60 | 1.5 ± 0.1 | 22.7 ± 3.1 | 441 ± 76 | –
CC(=O)[C@H]1CC[C@H]2[C@@H]3CC[C@@H]4C[C@H](OS(=O)(=O)O)CC[C@]4(C)[C@H]3CC[C@]12C [PAS, 20-oxo-5β-pregnan-3α-yl sulfate] | – | – | – | – | – | – | – | – | IC50 (NMDA receptors; in Fig. 1, read-out: IC50, negative allosteric modulation of NMDA receptors): 24.6 µM
